The results in this text go back to patent US20250059174A1, “Pharmaceutical Compounds and Compositions as C-Kit Kinase Inhibitors” (Enanta Pharmaceuticals, Inc., priority 2023, published 2025).

The EC50 is the concentration needed to bring the measured effect to its halfway point. A higher EC50 goes with weaker potency. In general, IC50 refers to the concentration at which inhibition is half-maximal.

For one assay, the system named is M-07e cells. In words: M-07e cellular assay (SCF-mediated cell proliferation). It counts as cell-based. The conditions noted are these: Homo sapiens, 72 hours, CellTiter Glo. As for the experimental part:
M-07e cells (Creative Bioarray, CSC-C0249) which endogenously express human c-KIT were used to evaluate the effect of compounds on stem cell factor (SCF)-mediated cell proliferation. M-07e cells were cultured in growth media (RPMI+10% FBS+1% penicillin/streptomycin+10 ng/mL GM-CSF) at 5E5-1.5E6 cells/mL, replenishing media every 3-4 days. 1.5E4 cells were seeded per well in 384 well tissue culture treated plates in 20 μL assay media (RPMI+[…]+1% penicillin/streptomycin) without growth factor stimulation and incubated at 37° C. in a CO2 humidity-controlled incubator. Twenty-four hours later, three-fold serially diluted test compounds in media containing SCF (at the previously determined EC90) were added to the plated M-07e cells and incubated for an additional 72 hours. Cell viability was determined by adding 25 μL CellTiter Glo (Promega) to the cells and the luminescence was measured using a Perkin Elmer Envision plate reader. The EC50 was determined using GraphPad Prism. Percent cell growth was determined after normalizing the curve to the mean RLU high control (no compound control wells) at 100% and the mean RLU low control (no SCF control wells) at 0%.
On the technique in general: Cellular ATP, detected with luciferase, serves as a proxy for viable cell number.

For assay [1], the target named is Recombinant human c-KIT kinase (Homo sapiens (Human), UniProt P10721). The assay is described as follows: c-KIT kinase chemiluminescence assay (ADP-Glo). It counts as biochemical. The conditions noted are these: ATP 50 μM. The procedure: The c-KIT Kinase Enzyme System (V4498) and ADP-Glo™ Kinase Assay kit (V6930) were purchased from Promega (Madison, WI). DMSO (D2650) was purchased from Sigma-Aldrich (Burlington, MA).
Kinase Reaction: The kinase assay was based on the recommended protocol by c-KIT Kinase Enzyme System from Promega. Recombinant human c-KIT kinase in 3 μL of assay buffer (40 mM Tris pH 7.5, 20 mM MgCl2, 0.1 mg/mL BSA and 50 μM DTT) was added to the test or high control wells and 3 μL of assay buffer was added to the low control wells. The microplate was centrifuged at 800 rotations per minute (rpm) for 60 s and incubated at room temperature (RT) for 30 min. Next, 2 μL of buffered ATP and polyEY substrate solution was added to all wells. The microplate was centrifuged at 800 rpm for 60 s and incubated at RT for 2 h.
ADP detection with ADP-Glo™ Kinase Assay: After the kinase reaction incubation, 5 μL of ADP-Glo™ reagent was added to all wells. The microplate was centrifuged at 800 rpm for 60 s and incubated at RT for 40 min. Ten microliter (10 μL) of Kinase Detection Reagent (Luciferin-Luciferase system) was then added to all wells. The microplate was centrifuged at 800 rpm for 60 s and incubated at RT for 60 min. Kinase activity was measured as increase in luminescence at RT in an Envision plate reader equipped with 560 nm filters and operating in endpoint mode. Data Analysis: Endpoint chemiluminescence from high and low control wells were used to calculate normalized c-KIT activity at various concentrations of test compounds. The normalized activities were fitted to inhibitor-versus-normalized response fit in GraphPad Prism 7 to determine half-maximal inhibitory concentration (IC50) and hill coefficient values (H).
Where I is the inhibitor concentration and H is the Hill coefficient.

Chain of Recombinant human c-KIT kinase (P10721 26-976): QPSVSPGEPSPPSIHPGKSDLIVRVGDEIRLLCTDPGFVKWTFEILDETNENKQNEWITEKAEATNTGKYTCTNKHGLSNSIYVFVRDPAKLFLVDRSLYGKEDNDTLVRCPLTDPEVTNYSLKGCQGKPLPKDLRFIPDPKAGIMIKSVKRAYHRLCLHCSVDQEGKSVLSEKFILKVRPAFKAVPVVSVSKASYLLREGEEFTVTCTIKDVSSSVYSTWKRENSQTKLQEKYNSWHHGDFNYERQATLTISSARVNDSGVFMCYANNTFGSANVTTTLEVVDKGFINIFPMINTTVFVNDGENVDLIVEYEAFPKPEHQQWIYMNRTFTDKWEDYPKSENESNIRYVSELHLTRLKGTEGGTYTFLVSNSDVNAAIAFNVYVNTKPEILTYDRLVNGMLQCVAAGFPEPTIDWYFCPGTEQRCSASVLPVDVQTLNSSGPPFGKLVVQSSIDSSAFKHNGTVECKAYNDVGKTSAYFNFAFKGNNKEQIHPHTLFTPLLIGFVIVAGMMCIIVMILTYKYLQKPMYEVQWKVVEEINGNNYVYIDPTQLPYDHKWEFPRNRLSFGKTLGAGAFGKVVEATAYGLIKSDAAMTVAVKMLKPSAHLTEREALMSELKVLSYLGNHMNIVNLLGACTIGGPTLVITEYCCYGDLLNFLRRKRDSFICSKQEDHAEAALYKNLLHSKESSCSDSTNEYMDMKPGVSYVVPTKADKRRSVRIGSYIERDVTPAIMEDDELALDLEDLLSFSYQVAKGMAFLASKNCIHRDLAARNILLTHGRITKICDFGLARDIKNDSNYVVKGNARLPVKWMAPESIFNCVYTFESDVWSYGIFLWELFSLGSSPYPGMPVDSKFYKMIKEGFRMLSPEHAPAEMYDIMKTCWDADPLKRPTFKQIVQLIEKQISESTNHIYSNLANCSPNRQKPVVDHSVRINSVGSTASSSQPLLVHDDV

In the assay on M-07e cells, `Cc1ccc(-c2noc([C@H]3C[C@@H]3F)n2)cc1NC(=O)c1cnn2cc(N3CC4(COC4)C3)ccc12` [Example 54] came in with an EC50 of less than 100 nM. The IC50 in assay [1] was less than 100 nM.
For `Cc1ccc(-c2noc([C@H]3C[C@@H]3F)n2)cc1NC(=O)c1cnn2ccc(C3CC3)cc12` [Example 55], the EC50 in the assay on M-07e cells fell in the range of 100 to 1000 nM. Besides, the IC50 in assay [1] is less than 100 nM.
Consider `Cc1ccc(-c2noc([C@H]3C[C@@H]3F)n2)cc1NC(=O)c1cnn2cc(C3CC3)ccc12` [Example 56], for which the EC50 in the assay with M-07e cells fell in the range of 100 to 1000 nM. Moreover, the IC50 in assay [1] is less than 100 nM.
For `Cc1ccc(-c2noc([C@H]3C[C@@H]3F)n2)cc1NC(=O)c1cnn2cc(Cl)ccc12` [Example 57], the EC50 in the assay on M-07e cells lay within 100 to 1000 nM. Further, the IC50 in assay [1] was less than 100 nM.
With `COc1ccc2c(C(=O)Nc3cc(-c4noc([C@H]5C[C@@H]5F)n4)ccc3C)cnn2c1` [Example 58], the EC50 in the assay on M-07e cells is less than 100 nM. Moreover, the IC50 in assay [1] is less than 100 nM.
On to `Cc1ccc(-c2noc([C@H]3C[C@@H]3F)n2)cc1NC(=O)c1cnn2ccc(Cl)cc12` [Example 59], for which the EC50 with M-07e cells fell in the range of 100 to 1000 nM. Besides, the IC50 in assay [1] is less than 100 nM.
Take `COc1ccn2ncc(C(=O)Nc3cc(-c4noc([C@H]5C[C@@H]5F)n4)ccc3C)c2c1` [Example 60]: in the assay on M-07e cells, the EC50 is less than 100 nM. Also, in assay [1], the IC50 is less than 100 nM.
In the assay with M-07e cells, `Cc1ccc2c(C(=O)Nc3cc(-c4noc([C@H]5C[C@@H]5F)n4)ccc3C)cnn2c1` [Example 61] registered an EC50 of less than 100 nM. In assay [1], the IC50 was less than 100 nM.
In the case of `Cc1ccc(-c2noc([C@H]3C[C@@H]3F)n2)cc1NC(=O)c1cnn2cc(F)c(Br)cc12` [Example 62], the EC50 in the assay on M-07e cells is greater than 1000 nM. For the same compound, the IC50 in assay [1] lay within 100 to 1000 nM.
In the same order, the values of `C/C=C/c1ccn2ncc(C(=O)Nc3cc(-c4noc([C@H]5C[C@@H]5F)n4)ccc3C)c2c1` [Example 69] are less than 100 nM and less than 100 nM.
Take `Cc1ccc(-c2noc([C@H]3C[C@@H]3F)n2)cc1NC(=O)c1cnn2ccc(CN3CCOCC3)cc12` [Example 70]: the EC50 with M-07e cells fell in the range of 100 to 1000 nM. For the same compound, in assay [1], the IC50 is less than 100 nM.
`Cc1ccc(-c2noc([C@H]3C[C@@H]3F)n2)cc1NC(=O)c1cnn2ccc(C=O)cc12` [Example 71] returned an EC50 in the assay with M-07e cells of 100 to 1000 nM. Moreover, the concentration for half-maximal inhibition (IC50) in assay [1] was less than 100 nM.
Consider `Cc1ccc(-c2noc([C@H]3C[C@@H]3F)n2)cc1NC(=O)c1cnn2ccc(CO)cc12` [Example 72], for which the EC50 with M-07e cells lay within 100 to 1000 nM. For the same compound, in assay [1], the IC50 was less than 100 nM.
In the case of `Cc1ccc(-c2noc([C@H]3C[C@@H]3F)n2)cc1NC(=O)c1cnn2cc(Cl)c(Br)cc12` [Example 73], the EC50 in the assay on M-07e cells was greater than 1000 nM. Moreover, the IC50 in assay [1] is greater than 1000 nM.
For `Cc1ccc(-c2noc([C@H]3C[C@@H]3F)n2)cc1NC(=O)c1cnn(-c2cccc(N)c2)c1` [Example 74], in the assay with M-07e cells, the EC50 is greater than 1000 nM. In addition, the IC50 in assay [1] was 100 to 1000 nM.
In the case of `Cc1ccc(-c2noc([C@H]3C[C@@H]3F)n2)cc1NC(=O)c1cnc(-c2ccccc2)o1` [Example 85], in the assay on M-07e cells, the EC50 is 100 to 1000 nM. Further, in assay [1], the IC50 was in the range of 100 to 1000 nM.
In turn, `Cc1ccc(-c2noc([C@H]3C[C@@H]3F)n2)cc1NC(=O)c1cnn2ccc(NC(=O)OC(C)(C)C)cc12` [Example 90] came in with an EC50 in the assay on M-07e cells of 100 to 1000 nM. In assay [1], the IC50 was in the range of 100 to 1000 nM.
On to `Cc1ccc(-c2noc([C@H]3C[C@@H]3F)n2)cc1NC(=O)c1cnn2ccc(N)cc12` [Example 92], for which the EC50 with M-07e cells is less than 100 nM. The IC50 in assay [1] was less than 100 nM.
As for `Cc1ccc(-c2noc([C@H]3C[C@@H]3F)n2)cc1NC(=O)c1cnn2ccc(NC(=O)c3ccccc3)cc12` [Example 93], the EC50 in the assay on M-07e cells fell in the range of 100 to 1000 nM. In addition, the IC50 in assay [1] was 100 to 1000 nM.
In turn, `Cc1ccc(-c2noc([C@H]3C[C@@H]3F)n2)cc1NC(=O)c1cnn2ccc(NC(=O)OC3CC3)cc12` [Example 94] displayed an EC50 in the assay on M-07e cells of 100 to 1000 nM. Moreover, the IC50 in assay [1] was in the range of 100 to 1000 nM.
`Cc1ccc(-c2noc([C@H]3C[C@@H]3F)n2)cc1NC(=O)c1cnn2ccc(NC(=O)OCc3ccccc3)cc12` [Example 95] returned an EC50 in the assay on M-07e cells of 100 to 1000 nM. Further, the IC50 in assay [1] fell in the range of 100 to 1000 nM.
On to `Cc1ccc(-c2noc([C@H]3C[C@@H]3F)n2)cc1NC(=O)c1cnn2ccc(NC(=O)NC3CC3)cc12` [Example 96], for which the EC50 in the assay with M-07e cells lay in the range of 100 to 1000 nM. The IC50 in assay [1] is 100 to 1000 nM.
Regarding `Cc1ccc(-c2noc([C@H]3C[C@@H]3F)n2)cc1NC(=O)c1cn2ncsc2n1` [Example 97], in the assay on M-07e cells, the EC50 was greater than 1000 nM. In assay [1], the IC50 was greater than 1000 nM.
`Cc1nc(Nc2ncc(C(=O)Nc3cc(-c4noc([C@H]5C[C@@H]5F)n4)ccc3C)s2)cc(N2CC3(COC3)C2)n1` [Example 98-1] displayed a half-maximal effective concentration (EC50) in the assay on M-07e cells of less than 100 nM. Moreover, in assay [1], the IC50 is less than 100 nM.
Compound `CC(=O)NC1CN(c2ncc(C(=O)Nc3cc(-c4noc([C@H]5C[C@@H]5F)n4)ccc3C)s2)C1` [Example 98-2] had an EC50 in the assay on M-07e cells greater than 1000 nM. The IC50 in assay [1] was greater than 1000 nM.
As for `Cc1ccc(-c2noc([C@H]3C[C@@H]3F)n2)cc1NC(=O)c1cnc(N2CC(C(=O)OC(C)(C)C)C2)s1` [Example 98-3], in the assay with M-07e cells, the EC50 was greater than 1000 nM. Further, the IC50 in assay [1] is greater than 1000 nM.
`Cc1ccc(-c2noc([C@H]3C[C@@H]3F)n2)cc1NC(=O)c1cnc(N2CC(C(=O)NC3CC3)C2)s1` [Example 98-5] returned an EC50 in the assay with M-07e cells greater than 1000 nM. Moreover, the IC50 in assay [1] is greater than 1000 nM.
With `Cc1ccc(-c2noc([C@H]3C[C@@H]3F)n2)cc1NC(=O)c1ccc2c(c1)CC(=O)N2` [Example 98-6], the EC50 with M-07e cells is greater than 1000 nM. In addition, the IC50 in assay [1] was greater than 1000 nM.
Compound `Cc1ccc(-c2noc([C@H]3C[C@@H]3F)n2)cc1NC(=O)c1ccc2[nH]c(=O)[nH]c2c1` [Example 98-7] gave an EC50 with M-07e cells greater than 1000 nM. For the same compound, in assay [1], the IC50 was greater than 1000 nM.
`Cc1ccc(-c2noc([C@H]3C[C@@H]3F)n2)cc1NC(=O)c1cnc(N2CCC3(CCC(=O)N3)CC2)s1` [Example 98-8]: the EC50 in the assay on M-07e cells is greater than 1000 nM. In addition, the IC50 in assay [1] was greater than 1000 nM.
With `Cc1ccc(-c2noc([C@H]3C[C@@H]3F)n2)cc1NC(=O)c1cnn(-c2ccccc2)c1C` [Example 98], the EC50 in the assay on M-07e cells was greater than 1000 nM. The IC50 in assay [1] is greater than 1000 nM.
As for `Cc1ccc(-c2noc([C@H]3C[C@@H]3F)n2)cc1NC(=O)c1cnc2n1CCc1ccccc1-2` [Example 100], the EC50 in the assay with M-07e cells was in the range of 100 to 1000 nM. Besides, the half-maximal inhibitory concentration (IC50) in assay [1] is less than 100 nM.
On the same counts, the results for `Cc1ccc(-c2noc([C@H]3C[C@@H]3F)n2)cc1NC(=O)c1cnc2n1C(C)c1ccccc1-2` (stereo partly shown) [Example 102] are 100 to 1000 nM and less than 100 nM.
On the same counts, the results for `C=CCC1c2ccccc2-c2ncc(C(=O)Nc3cc(-c4noc([C@H]5C[C@@H]5F)n4)ccc3C)n21` (stereo partly shown) [Example 103] are 100 to 1000 nM and 100 to 1000 nM.
On the same counts, the results for `Cc1ccc(-c2noc([C@H]3C[C@@H]3F)n2)cc1NC(=O)c1cnc2n1C(Cc1ccccc1)c1ccccc1-2` (stereo partly shown) [Example 104] are greater than 1000 nM and greater than 1000 nM.
Compound `Cc1ccc(-c2noc([C@H]3C[C@@H]3F)n2)cc1NC(=O)c1cnc2n1C(C)(C)c1ccccc1-2` [Example 105] returned an EC50 with M-07e cells of 100 to 1000 nM. The IC50 in assay [1] lay within 100 to 1000 nM.
For the compound `C#Cc1ccn2ncc(C(=O)Nc3cc(-c4noc([C@H]5C[C@@H]5F)n4)ccc3C)c2c1` [Example 108], the EC50 with M-07e cells is less than 100 nM. Besides, the IC50 in assay [1] was less than 100 nM.
As for `Cc1ccc(-c2noc([C@H]3C[C@@H]3F)n2)cc1NC(=O)c1cnn2cc(-c3cn(CCO)nn3)ccc12` [Example 109], the EC50 with M-07e cells was less than 100 nM. Besides, the IC50 in assay [1] is less than 100 nM.
